Test results published in US12029217B2, “Safened compositions comprising pyridine carboxylate herbicides and isoxadifen” (Corteva Agriscience LLC, priority 2018, dated 2024).

Legend:
Type in all cases: in vivo
[1] = system: Triticum aestivum (spring wheat); assay: Greenhouse postemergence visual injury, spring wheat (TRZAS)
Description: (§1) Seeds of the desired test plant species were planted in a 90:10% v/v (volume/volume) mixture of PRO-MIX® BX (Premier Tech Horticulture, Quakertown, PA, USA) and PROFILE® GREENS GRADE™ (Profile Products LLC, Buffalo Grove, IL, USA) planting mixture, which typically has a pH of 5.2 to 6.2 and an organic matter content of at least 50 percent, in plastic pots with a surface area of 103.2 square centimeters (cm^2). When required to ensure good germination and healthy plants, a fungicide treatment and/or other chemical or physical treatment was applied. The plants were grown for 7-36 days (d) in a greenhouse with an approximate 14-hour (h) photo-period which was maintained at about 23° C. during the day and 22° C. during the night. Nutrients and water were added on a regular basis and supplemental lighting was provided with overhead metal halide 1000-Watt lamps as necessary. The plants were employed for testing when they reached the second or third true leaf stage.
(§2) Emulsifiable concentrates of each of each pyridine carboxylate herbicide (Compound A or Compound B) were prepared at 100 grams acid equivalent per liter (g ae/L). An aliquot of each emulsifiable concentrate was placed in a 25 mL glass vial and diluted with an aqueous mixture of 1.25% (v/v) ACTIROB® B esterified rapeseed oil (Bayer Crop Science, Research Triangle Park, NC, USA) or MSO® Concentrate with LECI-TECH® methylated soybean oil (Loveland Products, Loveland, CO, USA) to obtain concentrated stock solutions at the highest application rate for each herbicide, based upon a 12 milliliter (mL) application volume at a rate of 187 liters per hectare (L/ha). The concentrated stock solutions were further diluted with an aqueous mixture of 1.25% v/v ACTIROB® B or MSO® Concentrate with LECI-TECH® to obtain stock solutions at reduced application rates for each herbicide. Spray solutions of the herbicide combinations (Compound A or Compound B plus safener) were prepared by adding weighed amounts or aliquots of the safener to the stock solutions of Compound A or Compound B to form 12-mL spray solutions in two-way combinations.
(§3) The spray solutions were applied to the plant material with an overhead Mandel track sprayer equipped with 8002E nozzles calibrated to deliver 187 L/ha over an application area of 0.503 square meters (m^2) at a spray height of 18 inches (43 centimeters (cm)) above the average plant canopy. Control plants were sprayed in the same manner with the solvent blank. All herbicide (component a) application rates are given as “g ae/ha” and all safener (component b) application rates are given as “g ai/ha.”
(§4) The treated plants and control plants were placed in a greenhouse as described above and watered by sub-irrigation to prevent wash-off of the test compounds. After 20-22 d, the condition of the test plants as compared with that of the control plants was determined visually and scored on a scale of 0 to 100 percent where 0 corresponds to no injury and 100 corresponds to complete kill.

[2] = system: Matricaria chamomilla (wild chamomile); assay: Greenhouse postemergence visual injury, wild chamomile (MATCH); settings: Example 1
Description: as §1, §2
(§5) The spray solutions were applied to the plant material with an overhead Mandel track sprayer equipped with 8002E nozzles calibrated to deliver 187 L/ha over an application area of 0.503 square meters (m^2) at a spray height of 18 inches (43 centimeters (cm)) above the average plant canopy. […]
as §4

[3] = system: Triticum aestivum (winter wheat); assay: Greenhouse postemergence visual injury, winter wheat (TRZAW)
Description: as §1, §2, §3, §4

[4] = system: Saccharum officinarum (sugarcane); assay: Greenhouse postemergence visual injury, sugarcane (SACOF); settings: Example 3
Description: as §1, §2, §3, §4

[5] = system: Amaranthus retroflexus (pigweed); assay: Greenhouse postemergence visual injury, pigweed (AMARE)
Description: as §1, §2, §3, §4

[6] = system: Cyperus esculentus (nutsedge); assay: Greenhouse postemergence visual injury, nutsedge (CYPES)
Description: as §1, §2, §3, §4

[7] = system: Zea mays (maize); assay: Greenhouse postemergence visual injury, maize (ZEAMX)
Description: as §1, §2, §3, §4

[8] = system: Sorghum vulgare (sorghum); assay: Greenhouse postemergence visual injury, sorghum (SORVU); settings: Example 5
Description: as §1, §2, §3, §4

[9] = system: Oryza sativa (common rice); assay: Greenhouse postemergence visual injury, rice (ORYSA); settings: Example 6
Description: as §1, §2, §5, §4

[10] = system: Alopecurus myosuroides (blackgrass); assay: Greenhouse postemergence visual injury, blackgrass (ALOMY); settings: Example 6
Description: as §1, §2, §5, §4

[11] = system: Chenopodium album L. (common lambsquarters); assay: Greenhouse postemergence visual injury, common lambsquarters (CHEAL); settings: Example 6
Description: as §1, §2, §5, §4

[12] = system: Cirsium arvense (Canada thistle); assay: Greenhouse postemergence visual injury, Canada thistle (CIRAR); settings: Example 6
Description: as §1, §2, §5, §4

[13] = system: Digitaria sanguinalis (large crabgrass); assay: Greenhouse postemergence visual injury, large crabgrass (DIGSA)
Description: as §1, §2, §3, §4

[14] = system: Echinochloa crus-galli (barnyardgrass); assay: Greenhouse postemergence visual injury, barnyardgrass (ECHCG)
Description: as §1, §2, §3, §4

[15] = system: Kochia scoparia (kochia); assay: Greenhouse postemergence visual injury, kochia (KCHSC); settings: Example 6
Description: as §1, §2, §5, §4

[16] = system: Kochia scoparia (herbicide-resistant kochia); assay: Greenhouse postemergence visual injury, herbicide-resistant kochia (KCHSC-R); settings: Example 6
Description: as §1, §2, §5, §4

[17] = system: Amaranthus palmeri (glyphosate-resistant Palmer amaranth); assay: Greenhouse postemergence visual injury, glyphosate-resistant Palmer amaranth (AMAPA-Gly); settings: Example 7
Description: as §1, §2, §5, §4

[18] = system: Ambrosia artemisiifolia (common ragweed); assay: Greenhouse postemergence visual injury, common ragweed (AMBEL); settings: Example 7
Description: as §1, §2, §5, §4

[19] = isoxadifen-ethyl 20 g/ha, Example 2
[20] = isoxadifen-ethyl 20 g/ha, Example 4
[21] = isoxadifen-ethyl 40 g/ha, Example 2
[22] = isoxadifen-ethyl 40 g/ha, Example 4
[23] = isoxadifen-ethyl 80 g/ha, Example 2
[24] = isoxadifen-ethyl 80 g/ha, Example 4
[25] = isoxadifen-ethyl 120 g/ha, Example 2
[26] = isoxadifen-ethyl 120 g/ha, Example 4
[27] = isoxadifen-ethyl 20 g/ha, Example 6
[28] = isoxadifen-ethyl 40 g/ha, Example 6
[29] = isoxadifen-ethyl 80 g/ha, Example 6
[30] = isoxadifen-ethyl 20 g/ha, Example 5
[31] = isoxadifen-ethyl 40 g/ha, Example 5
[32] = isoxadifen-ethyl 80 g/ha, Example 5
[33] = isoxadifen-ethyl 120 g/ha, Example 5
[34] = isoxadifen-ethyl 10 g/ha, Example 7
[35] = isoxadifen-ethyl 20 g/ha, Example 7

Measured: % visual injury, Ob

CCOC(=O)C1=NOC(c2ccccc2)(c2ccccc2)C1 [Isoxadifen-ethyl, isoxadifen-ethyl]
0%: [1]; isoxadifen-ethyl 10 g/ha, Example 1 | [1]; isoxadifen-ethyl 20 g/ha, Example 1 | [1]; [19] | [1]; [20] | [1]; isoxadifen-ethyl 40 g/ha, Example 1 | [1]; [21] | [1]; [22] | [1]; [23] | [1]; [24] | [1]; [25] | [1]; [26] | [2]; isoxadifen-ethyl 10 g/ha | [2]; isoxadifen-ethyl 20 g/ha | [2]; isoxadifen-ethyl 40 g/ha | [3]; [19] | [3]; [27] | [3]; [21] | [3]; [28] | [3]; [23] | [3]; [29] | [3]; [25] | [4]; isoxadifen-ethyl 10 g/ha | [4]; isoxadifen-ethyl 20 g/ha | [4]; isoxadifen-ethyl 40 g/ha | [4]; isoxadifen-ethyl 80 g/ha | [5]; [20] | [5]; [30] | [5]; [27] | [5]; [22] | [5]; [31] | [5]; [28] | [5]; [24] | [5]; [32] | [5]; [29] | [5]; [26] | [5]; [33] | [6]; [20] | [6]; [30] | [6]; [27] | [6]; [22] | [6]; [31] | [6]; [28] | [6]; [24] | [6]; [32] | [6]; [29] | [6]; [26] | [6]; [33] | [7]; [34] | [7]; [30] | [7]; [27] | [7]; [35] | [7]; [31] | [7]; [28] | [7]; [32] | [7]; [29] | [7]; [33] | [8]; isoxadifen-ethyl 20 g/ha | [8]; isoxadifen-ethyl 40 g/ha | [8]; isoxadifen-ethyl 80 g/ha | [8]; isoxadifen-ethyl 120 g/ha | [9]; isoxadifen-ethyl 20 g/ha | [9]; isoxadifen-ethyl 40 g/ha | [9]; isoxadifen-ethyl 80 g/ha | [10]; isoxadifen-ethyl 20 g/ha | [10]; isoxadifen-ethyl 40 g/ha | [10]; isoxadifen-ethyl 80 g/ha | [11]; isoxadifen-ethyl 20 g/ha | [11]; isoxadifen-ethyl 40 g/ha | [11]; isoxadifen-ethyl 80 g/ha | [12]; isoxadifen-ethyl 20 g/ha | [12]; isoxadifen-ethyl 40 g/ha | [12]; isoxadifen-ethyl 80 g/ha | [13]; [34] | [13]; [27] | [13]; [35] | [13]; [28] | [13]; [29] | [14]; [34] | [14]; [27] | [14]; [35] | [14]; [28] | [14]; [29] | [15]; isoxadifen-ethyl 20 g/ha | [15]; isoxadifen-ethyl 40 g/ha | [15]; isoxadifen-ethyl 80 g/ha | [16]; isoxadifen-ethyl 20 g/ha | [16]; isoxadifen-ethyl 40 g/ha | [16]; isoxadifen-ethyl 80 g/ha | [17]; isoxadifen-ethyl 10 g/ha | [17]; isoxadifen-ethyl 20 g/ha | [18]; isoxadifen-ethyl 10 g/ha | [18]; isoxadifen-ethyl 20 g/ha
